Measurements taken from article PMC4879574, “Identification of Leishmania donovani Topoisomerase 1 inhibitors via intuitive scaffold hopping and bioisosteric modification of known Top 1 inhibitors” (Scientific Reports, 2016).

Tests used:
[1] = molecular target: Leishmania donovani Topoisomerase 1 (LdTop1) (Leishmania donovani, UniProt A0A3Q8IHS4+Q8WQM6); experiment: Plasmid DNA relaxation assay, LdTop1 (simultaneous incubation); assay type: biochemical; details: plasmid DNA relaxation; averages of three experiments; read-out: LDTop1 inhibition (EC50)
Method: (§1) To investigate the inhibitory effect of our library compounds on the DNA relaxation activity of the recombinant Human and Leishmania topoisomerase 1 (Table 2), assays were performed involving supercoiled plasmid DNA, the enzymes (HTop1 and LdTop1) and our molecules. The enzymes were purified by the standard literature procedure.
All the experiments were conducted thrice and representative data from once set of them are expressed as mean ± SD.
(§2) The type I DNA topoisomerase are assayed by decreased mobility of the relaxed isomers of supercoiled pBS (SK^+) [pBlue-script (SK^+)] DNA in agarose gel. The relaxation assay was carried out as described previously with LdTop1B and HTop I, diluted in the relaxation buffer (25 mM Tris–HCl, pH 7.5, 5% glycerol, 0.5 mM DTT, 10 mM MgCl2, 50 mM KCl, […] and […] BSA) and supercoiled plasmid pBS (SK^+) DNA (85–95% were negatively supercoiled, with remainder being nicked circles)[9][28][29]. The reconstituted enzyme LdTop1B was assayed at 50 mM KCl concentration as described before. For all kinetic studies, the reaction mixtures containing the buffer and DNA were heated to 37 °C before addition of the enzymes. The reactions were rapidly quenched using stop solution and kept on ice. The gels were stained with ethidium bromide (EtBr) ([…]) and the amount of supercoiled monomer DNA band fluorescence were quantified by integration using Gel Doc 2000 under UV illumination (Bio-Rad Quantity One Software), as described previously.
Cells harvested from 1 litre of culture were separately lysed by lysozyme/sonication, and the proteins were purified through Ni-NTA (Ni^2+-nitriloacetate-agarose column (Qiagen, Hilden, Germany) followed by a phospho-cellulose column (P11 cellulose; Whatman, Maidstone Kent, UK) as described previously. Finally, the purified proteins LdTOP1L and LdTOP1S were stored at −70 °C. The concentrations of each protein were quantified by using Bradford Reagent (PIERCE, Thermo Fisher Scientific Inc., Rockford, USA). Purified LdTOP1L was mixed with purified LdTOP1S at a molar ratio of 1:1 to a total protein concentration of 0.5 mg/ml in reconstitution buffer [50 mM potassium phosphate, pH 7.5, 0.5 mM DTT, 1 mM EDTA, 0.1 mM PMSF and 10% (v/v) glycerol]. The mixture was dialyzed overnight at 4 °C and dialyzed fractions were used for plasmid relaxation activity.

Human Top1 (HTop1) = molecular target: T1, Human Top1 (HTop1) (Homo sapiens, UniProt P11387); experiment: Plasmid DNA relaxation assay, HTop1; assay type: biochemical; details: averages of three experiments, read-out: HTop1 inhibition (EC50)
T1 construct: made in house; host or cells: Sf-9 insect cells infected with recombinant baculovirus (gift from Prof. J. J. Champoux)
T1 sequence (P11387 1-765): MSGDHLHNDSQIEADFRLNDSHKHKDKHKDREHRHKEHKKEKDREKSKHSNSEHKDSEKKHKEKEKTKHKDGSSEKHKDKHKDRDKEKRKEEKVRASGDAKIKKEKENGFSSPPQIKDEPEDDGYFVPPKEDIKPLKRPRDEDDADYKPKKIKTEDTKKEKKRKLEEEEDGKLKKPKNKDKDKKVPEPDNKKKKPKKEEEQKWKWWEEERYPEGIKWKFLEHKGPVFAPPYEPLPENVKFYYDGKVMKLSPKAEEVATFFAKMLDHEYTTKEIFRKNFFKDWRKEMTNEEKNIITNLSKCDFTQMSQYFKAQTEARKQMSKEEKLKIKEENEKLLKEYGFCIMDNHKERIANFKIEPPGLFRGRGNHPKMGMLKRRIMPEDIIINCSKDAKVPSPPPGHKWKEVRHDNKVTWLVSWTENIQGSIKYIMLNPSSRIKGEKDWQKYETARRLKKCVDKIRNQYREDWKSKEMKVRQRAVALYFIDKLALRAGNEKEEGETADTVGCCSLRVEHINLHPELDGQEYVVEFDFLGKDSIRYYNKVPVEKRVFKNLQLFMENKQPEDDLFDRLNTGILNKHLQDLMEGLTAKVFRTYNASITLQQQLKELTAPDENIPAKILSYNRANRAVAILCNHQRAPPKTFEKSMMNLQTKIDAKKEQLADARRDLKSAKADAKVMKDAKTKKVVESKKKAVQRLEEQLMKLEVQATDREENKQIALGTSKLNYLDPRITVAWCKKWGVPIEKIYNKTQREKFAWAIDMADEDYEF
Method: as §1, §2
The wild-type HTop1 (91 kDa) was purified from Sf-9 insect cells infected with the recombinant baculovirus (a kind gift from Prof. J. J. Champoux). Approximately, 1 * 10^9 Sf-9 cells were infected with the recombinant virus, and cells were harvested after 48-h of infection. The cells were lysed and enzyme was purified as described. Briefly, at 48 h post-infection, approximately 3 * 10^9 Sf-9 cells were harvested by centrifugation for 5 min at 400 * g. The cells were resuspended in 1 liter of ice-cold phosphate-buffered saline and centrifuged for 5 min at 400 * g. The nuclei were washed twice in 80 ml of lysis buffer minus Triton X-100 and resuspended in 40 ml of resuspension buffer (50 mM KCl, 10 mM Tris-Cl, pH 7.5, 2 mM MgCl2, 25 mM DTT, 0.4 mg/ml phenylmethylsulfonyl fluoride, 0.12 mg/ml aprotinin). The nuclear extract was stirred for 5 min at ~200 rpm. With continued stirring, 50 ml of polyethylene glycol (PEG) buffer (18% PEG 8000, 1 M NaCl, 10% glycerol) was added dropwise in order to precipitate the DNA. The PEG precipitate was pelleted by centrifugation and the resulting PEG supernatant was dialyzed against 4 liters of potassium phosphate buffer. The dialyzed PEG supernatant passed over a 10-ml bed volume of phosphocellulose (Whatman P11) equilibrated with PPB. The HTop1 flowed through the PS column and then passed over a Mono Q column followed by loaded onto a Mono S column. The Mono S column was eluted with a 25-ml 50–200 mM KPO4, pH 7.4, gradient. […] The peak Mono S fractions were pooled, concentrated with an Amicon ultrafiltration cell, dialyzed into storage buffer (50% glycerol, 10 mM Tris-hydrochloride, pH 7.5, 1 mM DTT, 1 mM EDTA), and stored at −20 °C.

[2] = tested on: L. donovani AG83 promastigotes; experiment: MTT assay on extracellular promastigotes; assay type: cell-based; details: Leishmania donovani, 12 h, read-out: Anti-promastigote activity IC50
Method: Next, compound 4 was screened against extracellular promastigotes.
L. donovani AG83 promastigotes (3.0 × 10^6 cells/ml) are incubated with different concentrations of drugs/compounds under study (1, 2, 5, 10 and 20 μM) for 12 h, following which the survival percentage is estimated by MTT assay. Yellow MTT (3-(4,5-dimethylthiazol- 2-yl)-2,5-diphenyltetrazolium bromide, a tetrazole) is reduced to purple formazan in the mitochondria of living cells. The formazan is then solubilized, and the concentration is determined by optical density at 570 nm. Metabolically active cells convert MTT to formazan, thereby generating a quantitative measure of viability and cytotoxicity. Percentage of viable promastigotes in each treatment groups are determined with respect to untreated control cells.

Sequence of Leishmania donovani Topoisomerase 1 (LdTop1) (Q8WQM6 entry or part of it): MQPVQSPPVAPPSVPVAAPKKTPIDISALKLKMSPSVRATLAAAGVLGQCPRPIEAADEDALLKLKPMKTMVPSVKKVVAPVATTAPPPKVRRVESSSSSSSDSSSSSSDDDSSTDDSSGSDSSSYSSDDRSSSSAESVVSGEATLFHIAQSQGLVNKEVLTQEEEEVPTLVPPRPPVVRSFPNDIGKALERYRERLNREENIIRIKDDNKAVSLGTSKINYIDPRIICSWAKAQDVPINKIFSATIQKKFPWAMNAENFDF
Sequence of Leishmania donovani Topoisomerase 1 (LdTop1) (A0A3Q8IHS4 entry or part of it): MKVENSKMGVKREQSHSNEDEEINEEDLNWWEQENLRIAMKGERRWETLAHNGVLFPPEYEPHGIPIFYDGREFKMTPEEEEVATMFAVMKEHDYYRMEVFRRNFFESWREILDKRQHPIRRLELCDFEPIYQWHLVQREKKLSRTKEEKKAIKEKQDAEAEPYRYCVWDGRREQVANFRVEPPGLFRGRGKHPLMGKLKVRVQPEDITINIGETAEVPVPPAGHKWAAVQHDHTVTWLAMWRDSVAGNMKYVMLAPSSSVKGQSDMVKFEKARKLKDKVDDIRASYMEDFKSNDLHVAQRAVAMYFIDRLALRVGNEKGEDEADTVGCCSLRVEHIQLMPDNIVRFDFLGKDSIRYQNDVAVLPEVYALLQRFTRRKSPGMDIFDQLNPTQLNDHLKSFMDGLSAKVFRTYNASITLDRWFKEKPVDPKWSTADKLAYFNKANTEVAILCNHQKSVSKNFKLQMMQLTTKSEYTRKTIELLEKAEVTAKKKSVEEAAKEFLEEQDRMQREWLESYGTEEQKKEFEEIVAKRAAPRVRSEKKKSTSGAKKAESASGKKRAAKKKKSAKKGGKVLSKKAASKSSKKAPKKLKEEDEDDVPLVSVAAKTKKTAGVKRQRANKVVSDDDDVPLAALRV

| EC50 [1] | EC50 (Human Top1 (HTop1)) | IC50 [2] | Compound |
| --- | --- | --- | --- |
| > 100 µM | > 100 µM | – | Cc1cc2c(c(=O)[nH]1)C(=O)O/C2=C\c1ccccc1Br [Compound 20] |
| > 100 µM | > 100 µM | – | Cc1cc2c(c(=O)[nH]1)C(=O)O/C2=C\c1ccccc1Cl [Compound 21] |
| – | – | ~1 µM | CCCCCCCCCCCCCCCCOP(=O)([O-])OCC[N+](C)(C)C [miltefosine, reference compound] |
